# US8809341B2, “2,4-pyrimidinediamine compounds and uses as anti-proliferative agents” (Rigel Pharmaceuticals, Inc., priority 2003, dated 2014)
# Legend:
# Format in all cases: cell-based
# PC3 = assay: in vitro antiproliferation assay, PC3 (prostate)
# Procedure: (§1) The IC50 values of various compounds against a various different tumor cell lines were determined using standard in vitro antiproliferation assays. The tumor cell lines tested were as follows: A549 (lung); H1299 (lung), ACHN (kidney/p53 wt), CAKI (renal cell carcinoma), NCI-H460 (lung); HCT116 (colon/p53w0; HELA (cervix/p53 wt), HUH7 (liver/p53 wt), HUVEC (primary endothelial), LNCAP (prostate), HT-29 (colon); MCF-7 (breast); MCF-7 (breast/ER positive), MDA MB435S (breast); MDA MB231 (breast/ER negative), DU145 (prostate); BxPC-3 (pancreatic); SKOV-3 (ovarian); HepG2 (hepatic), NDHF primary normal human dermal fibroblast), SKMEL28 (breast/p53mut), SKMEL5 (breast/p53 wt), U20S (bone) and PC3 (prostate). […] A blank indicates the specified compound was not tested against the specified cell line.
# (§2) Many of the compounds were tested against other cell lines. Their activity is reported in TABLE 15, below, where +”, “−”, “−/+” or “+/−” values are as described for TABLES 1-14. Where the cell line includes a value in a parenthetical, the value indicates the seeding density at which the assay was performed
# A549 cells = assay: in vitro antiproliferation assay, A549 (lung); conditions: A549 (lung) cells
# Method in brief: (§3)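 Standard in vitro antiproliferation assays on tumour cell lines, including A549 and H1299 (both lung); IC50 values determined.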
# H1299 cells = assay: in vitro antiproliferation assay, H1299 (lung); conditions: H1299 (lung) cells
# Method in brief: as §3
# HCT116 = assay: in vitro antiproliferation assay, HCT116 (colon); conditions: HCT116 (colon); read-out: HCT116
# Procedure: as §1, §2
Structure (SMILES),IC50 (PC3),IC50 (A549 cells; in vitro antiproliferation),IC50 (A549 cells; antiproliferation),further results
Oc1ccc(Nc2ncc(F)c(Nc3ccc(O)c(F)c3)n2)cc1F [compound 742],≤ 20 µM,,,
Oc1cccc(Nc2ncc(F)c(Nc3ccc(OCCN4CCOCC4)cc3)n2)c1 [compound 746],> 20 µM,> 20 µM,,
CNC(=O)COc1ccc(Nc2ncc(F)c(Nc3ccc(C(C)(C)C)cc3)n2)cc1 [compound 747],≤ 20 µM,> 20 µM,,
CNC(=O)COc1cccc(Nc2ncc(F)c(Nc3ccc(C(C)(C)C)cc3)n2)c1 [compound 748],> 20 µM,> 20 µM,,
CC(C)(C)c1ccc(Nc2nc(Nc3cccc(OCC(=O)O)c3)ncc2F)cc1 [compound 749],> 20 µM,> 20 µM,,
CC(C)(C)c1ccc(Nc2nc(Nc3cccc(OCCO)c3)ncc2F)cc1 [compound 750],≤ 20 µM,> 20 µM,,
CNC(=O)COc1cccc(Nc2ncc(F)c(Nc3ccc(OC(C)C)cc3)n2)c1 [compound 751],> 20 µM,< 20 µM,,
CC(C)Oc1ccc(Nc2nc(Nc3cccc(OCC(=O)O)c3)ncc2F)cc1 [compound 752],> 20 µM,> 20 µM,,
CNC(=O)COc1cccc(Nc2ncc(F)c(Nc3ccc(OC)c(OC)c3)n2)c1 [compound 753],> 20 µM,> 20 µM,,
COc1ccc(Nc2nc(Nc3cccc(OCC(=O)NCC(O)CO)c3)ncc2F)cc1OC (centres unmarked) [compound 754],> 20 µM,> 20 µM,,
O=C(COc1cccc(Nc2ncc(F)c(Nc3cccc(O)c3)n2)c1)N1CCNCC1 [compound 761],> 20 µM,,,
O=C(COc1cccc(Nc2ncc(F)c(Nc3cccc(O)c3)n2)c1)N1CCOCC1 [compound 762],≤ 20 µM,> 20 µM,,
CC(C)c1ccc(Nc2ncc(F)c(Nc3cccc(O)c3)n2)cc1 [compound 764],> 20 µM,> 20 µM,,
COc1cc(Nc2ncc(F)c(Nc3cccc(O)c3)n2)cc(OC)c1 [compound 765],≤ 20 µM,≤ 20 µM,,
CNC(=O)COc1cccc(Nc2ncc(F)c(Nc3cc(OC)cc(OC)c3)n2)c1 [compound 767],> 20 µM,> 20 µM,,
CNC(=O)COc1cccc(Nc2ncc(F)c(Nc3ccc(C)c(OC)c3)n2)c1 [compound 790],≤ 20 µM,≤ 20 µM,,
Cc1cc(C)cc(Nc2ncc(F)c(Nc3cc(C)cc(C)c3)n2)c1 [compound 841],,≤ 20 µM,,IC50 (H1299 cells; in vitro antiproliferation): ≤ 20 µM; IC50 (HCT116): ≤ 20 µM
COc1cc(Nc2nc(Nc3cc(C)c(C)c(C)c3)ncc2F)cc(OC)c1 [compound 845],,≤ 20 µM,,IC50 (H1299 cells; in vitro antiproliferation): ≤ 20 µM; IC50 (HCT116): ≤ 20 µM
COCCOc1cccc(Nc2ncc(F)c(Nc3cc(O)c(O)c(OCCOC)c3)n2)c1 [compound 933],,,≤ 20 µM,IC50 (H1299 cells; antiproliferation): ≤ 20 µM; IC50 (HCT116): ≤ 20 µM
Fc1ccc(Nc2ncc(F)c(Nc3ccc(F)c(Cl)c3)n2)cc1Cl [compound 938],> 20 µM,,> 20 µM,
Cc1cc(Nc2nc(Nc3cccc(OCC(=O)N4CCOCC4)c3)ncc2F)cc(C)c1O [compound 948],≤ 20 µM,,> 20 µM,
Cc1cc(Nc2nc(Nc3cccc(OCC(=O)N4CCOCC4)c3)ncc2F)cc(Cl)c1O [compound 954],> 20 µM,,> 20 µM,
CNC(=O)COc1cccc(Nc2nc(Nc3cccc(C(C)(C)C)c3)ncc2F)c1 [compound 956],> 20 µM,,> 20 µM,
Cc1cc(Nc2nc(Nc3cccc(OCCN4CCOCC4)c3)ncc2F)cc(Cl)c1O [compound 957],≤ 20 µM,,≤ 20 µM,
Cc1cc(Nc2ncc(F)c(Nc3cccc(C(C)(C)C)c3)n2)cc(Cl)c1O [compound 959],> 20 µM,,> 20 µM,
CNC(=O)COc1cccc(Nc2ncc(F)c(Nc3cccc(C(C)(C)C)c3)n2)c1 [compound 960],> 20 µM,,> 20 µM,
CC(C)(C)c1cccc(Nc2nc(Nc3cccc(OCC(=O)NCC(O)CO)c3)ncc2F)c1 (centres unmarked) [compound 961],> 20 µM,,< 20 µM,
O=C(O)COc1cccc(Nc2ncc(F)c(Nc3cccc(O)c3)n2)c1 [compound 978],> 20 µM,,> 20 µM,
Cc1cc(Nc2nc(Nc3cccc(OCC(=O)N4CCNCC4)c3)ncc2F)cc(C)c1O [compound 980],> 20 µM,,≤ 20 µM,
